Data: patent US20240228458A1, “PYRIMIDINE DERIVATIVE HAVING PROTEIN KINASE INHIBITORY ACTIVITY, AND THERAPEUTIC PHARMACEUTICAL COMPOSITION COMPRISING SAME” (THERAPEX CO., LTD., priority 2021, published 2024)

Legend:
Type in all cases: cell-based
[1] = system: Ba/F3 cells expressing EGFR-wt; assay: Growth inhibition (GI50) of Ba/F3 cells expressing EGFR-wt, Celltiter glo; settings: Mus musculus, BaF3, 72 h
Summary of the method: (§1)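 Ba/F3 cells carrying each EGFR variant were plated at 100,000 cells/ml; after 4 h, compound was added as 10-point 4-fold dilutions (top stock 2 mM, 0.5% DMSO). After 72 h at 37 °C, viability was read by CellTiter-Glo; GI50 is the molar concentration (μM) giving 50% growth inhibition.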

[2] = system: Ba/F3 cells expressing L858R/T790M (EGFR-LT); assay: Growth inhibition (GI50) of Ba/F3 cells expressing L858R/T790M (EGFR-LT), Celltiter glo; settings: Mus musculus, BaF3, 72 h
Method: (§2) In this experimental example, a determination was made as to whether the compounds prepared in Examples 1-283 have the ability to inhibit the growth of Ba/F3 cells expressing EGFR-wt, del19/T790M/C797S (EGFR-DTC), L858R/T790M/C797S (EGFR-LTC), del19/T790M (EGFR-DT), and L858R/T790M (EGFR-LT) variants.
(§3) The parental Ba/F3 cell line is a population of cells that are not introduced with EGFR variants. Specifically, 100 μl of a cell line expressing each variant was plated in a 96-well plate at a density of 100,000 cells/ml. 10-point, 4-fold serial dilutions of each compound were prepared, starting at 2 mM. After 4 h, 0.5 μl of the compound (0.5% DMSO) was added, followed by incubation at 37° C. and 5% CO2 for 72 h. After incubation, the number of viable cells was measured using a Celltiter glo assay kit (Promega) and the GI50 of the compound was determined. The term “GI50” refers to the molar concentration (μM) of the compound required for 50% growth inhibition of cells.

[3] = system: Ba/F3 cells expressing L858R/T790M/C797S (EGFR-LTC); assay: Growth inhibition (GI50) of Ba/F3 cells expressing L858R/T790M/C797S (EGFR-LTC), Celltiter glo; settings: Mus musculus, BaF3, 72 h
Summary of the method: as §1

[4] = system: Ba/F3 cells expressing del19/T790M/C797S (EGFR-DTC); assay: Growth inhibition (GI50) of Ba/F3 cells expressing del19/T790M/C797S (EGFR-DTC), Celltiter glo; settings: Mus musculus, BaF3, 72 h
Summary of the method: as §1

[5] = system: parental Ba/F3 cell line; assay: Growth inhibition (GI50) of the parental Ba/F3 cell line (not introduced with EGFR variants), Celltiter glo; settings: Mus musculus, BaF3, 72 h, parental Ba/F3 cells
Summary of the method: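 Parental Ba/F3 cells (100,000 cells/ml) were treated with 10-point, 4-fold compound dilutions (0.5% DMSO; top stock 2 mM) for 72 h at 37 °C, 5% CO2. Viability was read by CellTiter-Glo; GI50 is the concentration (μM) giving 50% growth inhibition.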

[6] = system: Ba/F3 cells expressing del19/T790M (EGFR-DT); assay: Growth inhibition (GI50) of Ba/F3 cells expressing del19/T790M (EGFR-DT), Celltiter glo; settings: Mus musculus, BaF3, 72 h
Method: as §2, §3

| SMILES | GI50 [1] [µM] | GI50 [2] [µM] | GI50 [3] [µM] | GI50 [4] [µM] | GI50 [5] [µM] | GI50 [6] [µM] |
| --- | --- | --- | --- | --- | --- | --- |
| CC(=O)Nc1ccc(Cl)cc1Nc1nc(Nc2ccc(N3CCC(N4CCN(C)CC4)CC3)c(F)c2)ncc1Cl [Example 67, N-(4-chloro-2-((5-chloro-2-((3-fluoro-4-(4-(4-methylpiperazin-1-yl)piperidin-1-yl)phenyl)amino)pyrimidin-4-yl)amino)phenyl)acetamide] | 0.1 to 0.5 | 0.1 to 0.5 | 0.025 to 0.1 | 0.025 to 0.1 | 2 to 10 | 0.1 to 0.5 |
| CC(=O)Nc1ccccc1Nc1nc(Nc2cnc(N3CCC(N4CCN(C)CC4)CC3)c(F)c2)ncc1Cl [Example 70, N-(2-((5-chloro-2-((5-fluoro-6-(4-(4-methylpiperazin-1-yl)piperidin-1-yl)pyridin-3-yl)-amino)pyrimidin-4-yl)amino)phenyl)acetamide] | 0.1 to 0.5 | 0.025 to 0.1 | 0.025 to 0.1 | 0.025 to 0.1 | 0.5 to 2 | 0.025 to 0.1 |
| COc1cc(N2CCC(N3CCN(C)CC3)CC2)c(C)cc1Nc1ncc(Cl)c(Nc2cc(Cl)ccc2NS(C)(=O)=O)n1 [Example 80, N-(4-chloro-2-((5-chloro-2-((2-methoxy-5-methyl-4-(4-(4-methylpiperazin-1-yl)piperidin-1-yl)phenyl)amino)pyrimidin-4-yl)amino)phenyl)methanesulfonamide] | 0.1 to 0.5 | 0.001 to 0.025 | 0.001 to 0.025 | 0.001 to 0.025 | 2 to 10 | 0.001 to 0.025 |
| COc1cc(N2CCC(N3CCN(C)CC3)CC2)c(C)cc1Nc1ncc(Br)c(Nc2cc(Cl)ccc2NS(C)(=O)=O)n1 [Example 85] | 0.1 to 0.5 | 0.001 to 0.025 | 0.001 to 0.025 | 0.001 to 0.025 | 0.5 to 2 | 0.001 to 0.025 |
| COc1nc(N2CCC(N3CCN(C)CC3)CC2)c(C)cc1Nc1ncc(Br)c(Nc2cc(Cl)ccc2NS(C)(=O)=O)n1 [Example 86, N-(2-((5-bromo-2-((2-methoxy-5-methyl-6-(4-(4-methylpiperazin-1-yl)piperidin-1-yl)pyridin-3-yl)amino)pyrimidin-4-yl)amino)-4-chlorophenyl)methanesulfonamide] | 0.5 to 2 | 0.025 to 0.1 | 0.001 to 0.025 | 0.025 to 0.1 | 2 to 10 | 0.001 to 0.025 |
| CN1CCN(C2CCN(c3ccc(Nc4ncc(Br)c(Nc5cc(Cl)ccc5NS(C)(=O)=O)n4)cc3F)CC2)CC1 [Example 87, N-(2-((5-bromo-2-((3-fluoro-4-(4-(4-methylpiperazin-1-yl)piperidin-1-yl)phenyl)amino)pyrimidin-4-yl)amino)-4-chlorophenyl)methanesulfonamide] | 0.1 to 0.5 | 0.025 to 0.1 | 0.025 to 0.1 | 0.025 to 0.1 | 0.1 to 0.5 | 0.025 to 0.1 |
| COc1cc(N2CCC(N3CCN(C)CC3)CC2)c(Cl)cc1Nc1ncc(Br)c(Nc2cc(Cl)ccc2NS(C)(=O)=O)n1 [Example 88, N-(2-((5-bromo-2-((5-chloro-2-methoxy-4-(4-(4-methylpiperazin-1-yl)piperidin-1-yl)phenyl)amino)pyrimidin-4-yl)amino)-4-chlorophenyl)methanesulfonamide] | 0.1 to 0.5 | 0.001 to 0.025 | 0.001 to 0.025 | 0.001 to 0.025 | 0.5 to 2 | 0.001 to 0.025 |
| COc1cc(N2CCC(N3CCCN(C)CC3)CC2)c(C)cc1Nc1ncc(Br)c(Nc2cc(Cl)ccc2NS(C)(=O)=O)n1 [Example 89] | 0.1 to 0.5 | 0.001 to 0.025 | 0.001 to 0.025 | 0.001 to 0.025 | 0.5 to 2 | 0.025 to 0.1 |
| COc1cc(N2CCC(N3CCCC(N(C)C)C3)CC2)c(C)cc1Nc1ncc(Br)c(Nc2cc(Cl)ccc2NS(C)(=O)=O)n1 (stereo not drawn) [Example 90, N-(2-((5-Bromo-2-((4-(3-(dimethylamino)-[1,4′-bipiperidin]-1′-yl)-2-methoxy-5-methylphenyl)amino)pyrimidin-4-yl)amino)-4-chlorophenyl)methanesulfonamide] | 0.1 to 0.5 | 0.001 to 0.025 | 0.001 to 0.025 | 0.001 to 0.025 | 0.5 to 2 | 0.001 to 0.025 |
| COc1cc(N2CCC(N3CCNCC3)CC2)c(C)cc1Nc1ncc(Br)c(Nc2cc(Cl)ccc2NS(C)(=O)=O)n1 [Example 94, N-(2-((5-bromo-2-((2-methoxy-5-methyl-4-(4-(piperazin-1-yl)piperidin-1-yl)phenyl)amino)pyrimidin-4-yl)amino)-4-chlorophenyl)methanesulfonamide] | 0.025 to 0.1 | 0.001 to 0.025 | 0.001 to 0.025 | 0.001 to 0.025 | 0.5 to 2 | 0.001 to 0.025 |
| COc1cc(N2CCC(N3CCCN(C)CC3)CC2)c(Cl)cc1Nc1ncc(Br)c(Nc2cc(Cl)ccc2NS(C)(=O)=O)n1 [Example 95, N-(2-((5-bromo-2-((5-chloro-2-methoxy-4-(4-(4-methyl-1,4-diazepan-1-yl)piperidin-1-yl)phenyl)amino)pyrimidin-4-yl)amino)-4-chlorophenyl)methanesulfonamide] | 0.1 to 0.5 | 0.001 to 0.025 | 0.001 to 0.025 | 0.001 to 0.025 | 0.5 to 2 | 0.001 to 0.025 |
| Cc1cc(Nc2ncc(Br)c(Nc3cc(Cl)ccc3NS(C)(=O)=O)n2)c(Cl)cc1N1CCC(N2CCCN(C)CC2)CC1 [Example 97, N-(2-((5-bromo-2-((2-chloro-5-methyl-4-(4-(4-methyl-1,4-diazepan-1-yl)piperidin-1-yl)phenyl)amino)pyrimidin-4-yl)amino)-4-chlorophenyl)methanesulfonamide] | 0.5 to 2 | 0.025 to 0.1 | 0.001 to 0.025 | 0.025 to 0.1 | 0.5 to 2 | 0.025 to 0.1 |
| Cc1cc(Nc2ncc(Br)c(Nc3cc(Cl)ccc3NS(C)(=O)=O)n2)c(Cl)cc1N1CCC(N2CCCC(N(C)C)C2)CC1 (stereo not drawn) [Example 98, N-(2-((5-bromo-2-((2-chloro-4-(3-(dimethylamino)-[1,4′-bipiperidin]-1′-yl)-5-methylphenyl)amino)pyrimidin-4-yl)amino)-4-chlorophenyl)methanesulfonamide] | 0.1 to 0.5 | 0.1 to 0.5 | 0.025 to 0.1 | 0.025 to 0.1 | 0.5 to 2 | 0.025 to 0.1 |
| COc1cc(N2CCC(N3CCN(C)CC3)CC2)c(C)cc1Nc1ncc(Cl)c(Nc2ccc3ncccc3c2NS(C)(=O)=O)n1 [Example 115, N-(6-((5-chloro-2-((2-methoxy-5-methyl-4-(4-(4-methylpiperazin-1-yl)piperidin-1-yl)phenyl)amino)pyrimidin-4-yl)amino)quinolin-5-yl)methanesulfonamide] | 0.1 to 0.5 | 0.025 to 0.1 | 0.001 to 0.025 | 0.001 to 0.025 | 2 to 10 | 0.1 to 0.5 |
| COc1cc(N2CCC(N3CCN(C)CC3)CC2)c(C)cc1Nc1ncc(Cl)c(Nc2ccc3nccnc3c2NS(C)(=O)=O)n1 [Example 131, N-(6-((5-chloro-2-((2-methoxy-5-methyl-4-(4-(4-methylpiperazin-1-yl)piperidin-1-yl)phenyl)amino)pyrimidin-4-yl)amino)quinoxalin-5-yl)methanesulfonamide] | 0.1 to 0.5 | 0.025 to 0.1 | 0.001 to 0.025 | 0.025 to 0.1 | 0.5 to 2 | 0.001 to 0.025 |
| COc1nc(N2CCC(N3CCN(C)CC3)CC2)c(C)cc1Nc1ncc(Cl)c(Nc2ccc3nccnc3c2NS(C)(=O)=O)n1 [Example 134, N-(6-((5-chloro-2-((2-methoxy-5-methyl-6-(4-(4-methylpiperazin-1-yl)piperidin-1-yl)pyridin-3-yl)amino)pyrimidin-4-yl)amino)quinoxalin-5-yl)methanesulfonamide] | 0.1 to 0.5 | 0.1 to 0.5 | 0.025 to 0.1 | 0.025 to 0.1 | 0.1 to 0.5 | 0.1 to 0.5 |
| COc1cc(N2CCC(N3CCN(C)CC3)CC2)c(C)cc1Nc1ncc(Cl)c(Nc2cc3c(cc2NS(C)(=O)=O)CCO3)n1 [Example 140, N-(6-((5-chloro-2-((2-methoxy-5-methyl-4-(4-(4-methylpiperazin-1-yl)piperidin-1-yl)phenyl)amino)pyrimidin-4-yl)amino)-2,3-dihydrobenzofuran-5-yl)methanesulfonamide] | 0.1 to 0.5 | 0.025 to 0.1 | 0.001 to 0.025 | 0.025 to 0.1 | 0.5 to 2 | 0.001 to 0.025 |
| COc1cc(N2CCC(N3CCN(C)CC3)CC2)c(C)cc1Nc1ncc(Br)c(Nc2ccccc2N=S(C)(C)=O)n1 [Example 142] | 0.5 to 2 | 0.5 to 2 | 0.025 to 0.1 | 0.1 to 0.5 | 0.5 to 2 | 0.5 to 2 |
